In PMC8218635, “Structural Insights into the Mechanisms of Action of Functionally Distinct Classes of Chikungunya Virus Nonstructural Protein 1 Inhibitors” (Antimicrobial Agents and Chemotherapy, 2021):
Where two headings read alike, the source gives them in different places.

Legend:
[1] = system: SINV; parameters: method as in PMID 31964798; settings: cited from earlier work
[2] = system: rCHIKV G230R + K299E; assay type: cell-based, Chikungunya virus; settings: for Fold resistance, rCHIKV G230R + K299E: (EC50 for the variant)/(EC50 for the wt); for EC50: CPE reduction assay, Vero E6 cells; for Sensitivity or resistance of CHIKV nsP1-G230R+K299E to the compound: Fig. 2
[3] = system: rCHIKV P34S; assay type: cell-based, Chikungunya virus; settings: for Fold resistance, rCHIKV P34S: (EC50 for the variant)/(EC50 for the wt); for EC50: CPE reduction assay, Vero E6 cells; for Sensitivity or resistance of CHIKV nsP1-P34S to the compound: at the concentrations tested, Fig. 2
[4] = system: rCHIKV S454G + W456R; assay type: cell-based, Chikungunya virus; settings: for Fold resistance, rCHIKV S454G + W456R: (EC50 for the variant)/(EC50 for the wt); for EC50: CPE reduction assay, Vero E6 cells; for Sensitivity or resistance of CHIKV nsP1-S454G+W456R to the compound: at the doses tested, Fig. 2
[5] = system: SFV; assay: microbe, parasite or virus in culture; assay type: cell-based; settings: multicycle CPE reduction assay, Vero E6 cells, NA = not active
[6] = system: CHIKV; assay: microbe, parasite or virus in culture; assay type: cell-based
[7] = system: Vero E6 cells
[8] = target: T1, wt SFV nsP1 (Semliki forest virus, UniProt P08411); parameters: method as in PMID 31964798; settings: cited from earlier work
T1 sequence (P08411 1-537 limits assumed): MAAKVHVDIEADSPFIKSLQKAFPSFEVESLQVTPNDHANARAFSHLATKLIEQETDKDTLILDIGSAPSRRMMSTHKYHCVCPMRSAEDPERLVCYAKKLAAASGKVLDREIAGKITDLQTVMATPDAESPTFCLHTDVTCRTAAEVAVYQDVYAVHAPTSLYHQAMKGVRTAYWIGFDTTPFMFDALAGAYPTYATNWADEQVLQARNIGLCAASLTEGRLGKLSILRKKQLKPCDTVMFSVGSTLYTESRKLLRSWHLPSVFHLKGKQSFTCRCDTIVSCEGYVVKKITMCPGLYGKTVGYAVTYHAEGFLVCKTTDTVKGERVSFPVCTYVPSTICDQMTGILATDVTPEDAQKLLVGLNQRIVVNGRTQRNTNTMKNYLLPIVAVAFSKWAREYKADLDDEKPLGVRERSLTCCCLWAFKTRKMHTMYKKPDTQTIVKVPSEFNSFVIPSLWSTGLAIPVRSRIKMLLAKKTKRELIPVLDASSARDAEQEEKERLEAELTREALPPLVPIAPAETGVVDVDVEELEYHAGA

[9] = target: T1, wt SFV nsP1; assay type: biochemical; settings: for Inhibition of formation of the covalent [32P]m7GMP-nsP1 complex: wt SFV nsP1, 100 μM SAM, inhibitor 50 μM to 1 mM, Fig. 3A
[10] = in vitro; settings: African green monkey
[11] = target: wt CHIKV nsP1 (Chikungunya virus, UniProt Q8JUX6); assay type: biochemical; settings: wt CHIKV nsP1, 10 μM SAM; for Inhibition of formation of the covalent [32P]m7GMP-nsP1 intermediate: inhibitor 0.5 to 32 μM, Fig. 3C
[12] = system: VEEV nsP1; settings: cited from earlier work
[13] = system: CHIKV nsP1; settings: enzymatic assays measuring either MTase or GTase activity; cited from earlier work
[14] = Chikungunya virus, Vero C1008, 96 h, read-out: EC50, concentration that reduces virus-induced CPE by 50%, CHIKV, multicycle CPE reduction assay, Vero E6 cells, 96 h
[15] = Chikungunya virus, Vero C1008, read-out: EC50 for wt CHIKV, Table 2, wt CHIKV, CPE reduction assay, Vero E6 cells

Compound	Fold resistance, rCHIKV G230R + K299E [2]	EC50 [2] [µM]	Sensitivity or resistance of CHIKV nsP1-G230R+K299E to the compound [2]	Fold resistance, rCHIKV P34S [3]	EC50 [3] [µM]	Fold resistance, rCHIKV S454G + W456R [4]	EC50 [4] [µM]	Sensitivity or resistance of CHIKV nsP1-S454G+W456R to the compound [4]	Inhibition of formation of the covalent [32P]m7GMP-nsP1 complex [9]	CC50 [10] [µM]	Inhibition of formation of the covalent [32P]m7GMP-nsP1 intermediate [11]	EC50 [6, 14] [µM]	EC50 [6, 15] [µM]	CC50 ([7]; African green monkey) [µM]	Sensitivity or resistance of CHIKV nsP1-P34S to the compound [3]	also measured
6′-β-Fluoro-homoaristeromycin [FHA]	14.3	> 10	resistant	2.3	1.6 ± 0.2	1	–	–	–	–	–	–	–	–	–	Activity against SINV [1]: inactive; EC50 ([5]; 32 h): 3.9 ± 3.5 µM; EC50 ([6]; CHIKV, multicycle CPE reduction assay, Vero E6 cells, 96 h, read-out: EC50, concentration that reduces virus-induced CPE by 50%): 0.7 ± 0.08 µM; EC50 ([6]; Table 2, wt CHIKV, CPE reduction assay, Vero E6 cells, read-out: EC50 for wt CHIKV): 0.7 ± 0.08 µM; CC50 [7]: > 250 µM
Nc1ncnc2c1ncn2C1C(F)=C(CCO)C(=O)C1O (stereo not drawn) [3′-Keto form of FHNA]	–	–	–	–	–	–	–	–	–	–	–	–	–	–	–	Inhibition of formation of the covalent [32P]m7GMP-nsP1 intermediate ([8]; wt SFV nsP1): only partially inhibited
CCNc1nc(C)cc(N2CCN(C(=O)c3ccc(F)cc3)CC2)n1 [CHVB-032]	1	3.4 ± 0.2	–	14.4	52.4 ± 0.8	29.4	> 100	completely resistant	completely blocked	> 100	in a dose-dependent manner	3.4 ± 0.3	3.4 ± 0.3	> 100	–	–
CCNc1nc(C)cc(N2CCN(C(=O)c3ccc(C)cc3)CC2)n1 [CHVB-066]	<1	0.3 ± 0.04	–	20.8	> 12.5	20.8	> 12.5	–	completely blocked	25	in a dose-dependent manner	< 1	0.6 ± 0.1	–	completely resistant	Inhibition of GTase activity of VEEV nsP1 [12]: inhibit the GTase activity
Nc1ncnc2c1ncn2C1C(F)=C(CCO)C(O)C1O (stereo not drawn) [FHNA, 6′-fluoro-homoneplanocin A]	8.6	> 10	resistant	2.4	2.8 ± 0.3	1	1.2 ± 0.1	–	–	> 250	–	1.2 ± 0.03	1.2 ± 0.03	> 250	–	Activity against SINV [1]: inactive; Inhibition of formation of the covalent [32P]m7GMP-nsP1 intermediate ([8]; modified SFV nsP1 assay lacking DTT, not shown): to a lesser extent; EC50 ([5]; Semliki Forest virus, Vero C1008, 32 h): 3.9 to 5.2 µM; EC50 ([5]; 32 h): 5.2 ± 3.2 µM; Reduction of the [32P]m7GMP-nsP1 signal ([11]; with or without DTT, 12.5 to 500 μM compound, Fig. 3E): no reduction in the signal
CNc1ncnc2c1ncn2C1C(O)C(O)C(CCO)C1F (stereo not drawn) [FMA, 6′-β-fluoro-N^6-methyladenosine]	–	–	–	–	–	–	–	–	–	–	–	–	–	–	–	Activity in CHIKV CPE reduction assays ([6]; source of the data not stated): inactive
NC(=O)c1nc(F)c[nH]c1=O [Favipiravir, reference compound]	1.7	135 ± 5	sensitive	1.2	95.9 ± 12.8	1.1	89.5 ± 0.2	sensitive	–	–	–	–	79.8 ± 1.4	–	sensitive	–
CCC1=NC2C(N=NN2c2cccc(OC(C)C)c2)C(=O)N1 (stereo not drawn) [MADTP-372]	<1	1.2 ± 0.2	–	9.3	> 25	9.3	> 25	cross-resistant	less effectively	> 100	in a dose-dependent manner	2.7 ± 0.2	2.7 ± 0.2	> 100	completely resistant	Inhibition of GTase activity of VEEV nsP1 [12]: inhibit the GTase activity
Nc1ncnc2c1ncn2[C@@H]1O[C@H](C[C@@H](N)CC[C@H](N)C(=O)O)[C@@H](O)[C@H]1O [Sinefungin, reference compound]	1.5	274.5 ± 0.2	sensitive	<1	151 ± 2.5	<1	110 ± 3.9	sensitive	very inefficient inhibitor	> 1000	–	185 ± 38.4	185 ± 38.4	> 1000	sensitive	Effect on GTase activity in reactions lacking SAM ([9]; wt SFV nsP1, 50 μM sinefungin, no SAM, Fig. 3B): appeared to stimulate GTase activity; Inhibition of CHIKV nsP1 [13]: inhibits; Reduction of the [32P]m7GMP-nsP1 signal ([11]; 1 mM compound, Fig. 3D): reduced the signal slightly; Reduction of the [32P]m7GMP-nsP1 signal ([11]; 125 to 500 μM compound, Fig. 3D): did not lead to any reduction in the signal; Inhibition of VEEV nsP1 [12]: inhibits
